Measured values as given in patent US20130042333A1, “MARKERS FOR CANCER PROGNOSIS AND THERAPY AND METHODS OF USE” (priority 2011, published 2013).

Legend:
[1] = system: SC61 small-cell lung cancer xenograft; assay: Tumor regression-regrowth assay, SC61 xenograft; assay type: in vivo, human tumor in immunodeficient mice; settings: x1 cycle
Source text: (§1) Tumor xenografts were generated by direct subcutaneous grafting into immunodeficient mice of human tumor surgical samples with informed written consent of the patients and maintained by serial transplantation. […] They are thus clinically relevant tumor models, as opposed to xenografts produced from tumor cell lines that have been obtained by in vitro culture and often passaged for many years (Fiebig, H. H. et al. Eur J Cancer 40, 802-820, 2004; Marangoni E., Vincent-Salomon A., Auger N. et al. Clin Cancer Res. 2007 Jul. 1; 13:3989-98).
Chemotherapeutic drugs were administered by intraperitoneal route according to the following doses and schedules: adriamycin, 2 mg/kg, q3wk (Doxorubicin®, Teva Pharmaceuticals, France) and Cyclophosphamide, 100 mg/kg, q3wk (Endoxan®, Baxter, France). Irinotecan (Campto®, Pfizer Holding France), 50 mg/kg, q4dx4. Etoposide 12 mg/kg, qdx3. Ifosfamide 90 mg/kg, qdx3. bPARP inhibitor (AZD2281, Sequoia Research Products, UK) at 50 mg/kg (ip; qdx14). A second treatment cycle was performed with PARP inhibitor at 50 mg/kg (ip qdx5) during the nodule phase. […] Tumor volume was evaluated by measuring two perpendicular diameters of the tumor, with a calliper, biweekly during the treatment period and once a week during the follow-up period. […] Mice were ethically sacrificed when the tumor volume reached 2000 mm3 Individual tumor growth delays (TGD) is calculated as the time in days required for individual tumors to reach 3- to 5-fold the initial median tumor volume. The tumor growth delay index (TGDI) is calculated as the median growth delay in the treated group divided by the median growth delay in the control group. The percentage ratio between the mean tumor volume of a treated group (T) and the mean tumor volume of the control group (C) is calculated. […]

[2] = system: HBCx-24 breast tumor xenograft; assay: Tumor regression-regrowth assay, HBCx-24 xenograft; assay type: in vivo, human tumor in Swiss nude mice; settings: Doc 20 mg/kg, x2 cycles
Source text: as §1
(§2) Chemotherapeutic drugs were administered by intraperitoneal route according to the following doses and schedules: adriamycin, 2 mg/kg, q3wk (Doxorubicin®, Teva Pharmaceuticals, France) and Cyclophosphamide, 100 mg/kg, q3wk (Endoxan®, Baxter, France). Irinotecan (Campto®, Pfizer Holding France), 50 mg/kg, q4dx4. Etoposide 12 mg/kg, qdx3. Ifosfamide 90 mg/kg, qdx3. bPARP inhibitor (AZD2281, Sequoia Research Products, UK) at 50 mg/kg (ip; qdx14). A second treatment cycle was performed with PARP inhibitor at 50 mg/kg (ip qdx5) during the nodule phase. Other pharmacological inhibitors are tested and administrated at the nodule phase: JAK1/2 Inhibitor (CP-690550) at 15 mg/kg (po qdx14), Epigallocatechin gallate (ECGC) (Sequoia Research Products, UK) at 30 mg/kg (ip qdx28), HDAC inhibitor (Trichostatine A), Retinoic acid at 50 mg/kg (ip qdx28) (Sigma-Aldrich, France). Breast tumor xenograft models were transplanted into 5-week old female Swiss nude mice, as described above, one tumor being transplanted into 5-10 recipients. When tumors reached a volume of 60-250 mm3, mice were individually identified and randomly assigned to the control or treated groups (12 to 20 mice per group). Tumor volume was evaluated by measuring two perpendicular diameters of the tumor, with a calliper, biweekly during the treatment period and once a week during the follow-up period. The formula TV (mm3)=[length (mm)×width (mm)2]/2 was used, where the length and the width were the longest and the shortest diameters of the tumor, respectively. All animals were weighted biweekly during the treatment period and the follow-up period. Mice were ethically sacrificed when the tumor volume reached 2000 mm3 Individual tumor growth delays (TGD) is calculated as the time in days required for individual tumors to reach 3- to 5-fold the initial median tumor volume. The tumor growth delay index (TGDI) is calculated as the median growth delay in the treated group divided by the median growth delay in the control group. The percentage ratio between the mean tumor volume of a treated group (T) and the mean tumor volume of the control group (C) is calculated.
(§3) Tumors were collected from 5 independent mice at different time points: prior to treatment (=controls with volume<200 mm3); post-treatment residual tumors (=nodules with volume<32 mm3 until minimal palpation); recurrent tumors (=regrowth with volume>62.5 mm3) Tumors or nodules were processed for (1) FFPE (formalin-fixed paraffin-embedded) or for (2) snap frozen samples: samples were cut into 3-4 mm pieces (at least 3 fragments) and snap-frozen in liquid nitrogen, then transferred to −80° C. for storage. Samples were allocated for histology, microdissection and RNA analyses.
(§4) Three categories of responders were defined based on the TGDI and T/C values.

[3] = system: IC20DAN (a primary NSCLC tumor xenograft); assay: Tumor regression-regrowth assay, IC20DAN xenograft; assay type: in vivo, human tumor in immunodeficient mice; settings: Doc 20 mg/kg, x1 cycle
Source text: as §1, §2, §3, §4

[4] = system: HBCx-6 breast cancer xenograft; assay: Tumor regression-regrowth assay, HBCx-6 xenograft; assay type: in vivo, human tumor in Swiss nude mice; settings: HBCx-6 combination study; A/C 2/100 mg/kg; AZD2281 50 mg/kg i.p.
Source text: as §1
Chemotherapeutic drugs were administered by intraperitoneal route according to the following doses and schedules: adriamycin, 2 mg/kg, q3wk (Doxorubicin®, Teva Pharmaceuticals, France) and Cyclophosphamide, 100 mg/kg, q3wk (Endoxan®, Baxter, France). […] Tumor volume was evaluated by measuring two perpendicular diameters of the tumor, with a calliper, biweekly during the treatment period and once a week during the follow-up period. […] Mice were ethically sacrificed when the tumor volume reached 2000 mm3 Individual tumor growth delays (TGD) is calculated as the time in days required for individual tumors to reach 3- to 5-fold the initial median tumor volume. The tumor growth delay index (TGDI) is calculated as the median growth delay in the treated group divided by the median growth delay in the control group. […]

[5] = system: TC71 colorectal tumor xenograft; assay: Tumor regression-regrowth assay, TC71 xenograft; assay type: in vivo, human tumor in immunodeficient mice; settings: x1 cycle, mg/kg: Ox 10, Cap 540, I 50, B 5, Cet 5
Source text: as §1, §2, §3, §4

[6] = system: HBCx-39 breast tumor xenograft; assay: Tumor regression-regrowth assay, HBCx-39 xenograft; assay type: in vivo, human tumor in Swiss nude mice; settings: Cap 540 mg/kg, x2 cycles
Source text: as §1, §2, §3, §4

[7] = system: HBCx-17 breast tumor xenograft; assay: Tumor regression-regrowth assay, HBCx-17 xenograft; assay type: in vivo, human tumor in Swiss nude mice; settings: A/C 2/100 or Cap 540 mg/kg, x2 cycles
Source text: as §1, §2, §3, §4

[8] = system: TC305 colorectal tumor xenograft; assay: Tumor regression-regrowth assay, TC305 xenograft; assay type: in vivo, human tumor in immunodeficient mice; settings: x1 cycle, mg/kg: Ox 10, Cap 540, I 50, B 5, Cet 5
Source text: as §1, §2, §3, §4

[9] = system: ODA14 RAV glioma xenograft; assay: Tumor regression-regrowth assay, ODA14 RAV xenograft; assay type: in vivo, human tumor in immunodeficient mice; settings: TMZ 42 mg/kg, x1 cycle
Source text: as §1, §2, §3, §4

[10] = CDDP 2/12 or VP16/IFO 12/90 mg/kg

[NH2][Pt]([NH2])([Cl])[Cl] [CDDP, cisplatin]
% Tumor Relapse ([1]; CDDP 2/12 mg/kg): 100% | % Nodules [1, 10]: 23% | Median Nodule Apparition Time [1, 10]: 13

CC(=O)O[C@@]12CO[C@@H]1C[C@H](O)[C@@]1(C)C(=O)[C@H](O)C3=C(C)[C@@H](OC(=O)[C@H](O)[C@@H](NC(=O)OC(C)(C)C)c4ccccc4)C[C@@](O)([C@@H](OC(=O)c4ccccc4)[C@H]21)C3(C)C [Doc, docetaxel]
% Nodules [2]: 70% | % Tumor Relapse [2]: 71.4% | Median Nodule Apparition Time [2]: 10 | Median Time of Relapse [2]: 14 | T/C % D21 [2]: 21% | TGDI [2]: 2.39 | median TGD × 5 [2]: 35.44 days | % Nodules [3]: 60% | % Tumor Relapse [3]: 100% | Median Nodule Apparition Time [3]: 11 | Median Time of Relapse [3]: 9 | TGDI [3]: >4.8 | median TGD × 5 [3]: >24 days

O=C(c1cc(Cc2n[nH]c(=O)c3ccccc23)ccc1F)N1CCN(C(=O)C2CC2)CC1 [AZD2281]
anti-tumor activity [4]: significant anti-tumor activity | tumors showing complete tumor regression [4]: 2 out of 7

CCCCCOC(=O)Nc1nc(=O)n([C@@H]2O[C@H](C)[C@@H](O)[C@H]2O)cc1F [Cap, capecitabine]
% Nodules [5]: 100% | % Tumor Relapse [5]: 100% | Median Nodule Apparition Time [5]: 22 | Median Time of Relapse [5]: 36 | T/C % D21 [5]: 5% | TGDI [5]: 5.11 | median TGD × 5 [5]: 66.48 days | % Nodules [6]: 56% | % Tumor Relapse [6]: 100% | Median Nodule Apparition Time [6]: 17 | Median Time of Relapse [6]: 63 | T/C % D21 [6]: 11% | TGDI [6]: >4.54 | median TGD × 5 [6]: >84 days | % Nodules [7]: 30% | % Tumor Relapse [7]: 100% | Median Nodule Apparition Time [7]: 50 | Median Time of Relapse [7]: 4 | T/C % D21 [7]: 48% | T/C % D42 [7]: 12% | TGDI [7]: >2.81 | median TGD × 5 [7]: >64 days | % Nodules [8]: 33% | % Tumor Relapse [8]: 100% | Median Nodule Apparition Time [8]: 7 | Median Time of Relapse [8]: 11 | T/C % D21 [8]: 40% | TGDI [8]: 1.74 | median TGD × 5 [8]: 27.87 days

Cn1nnc2c(C(N)=O)ncn2c1=O [TMZ]
% Nodules [9]: 100% | % Tumor Relapse [9]: 100% | Median Nodule Apparition Time [9]: 7 | Median Time of Relapse [9]: 21 | TGDI [9]: 6.66 | median TGD × 5 [9]: 46.62 days
